Experimental data as given in patent US20090047223A1, “Improvements in or Related to Organic Compoounds” (GIVAUDAN SA, priority 2005, published 2009).
Where a name gives a salt, the structure may show the parent alone. Read-outs that look alike come from different tables or passages of the source.

Legend:
[1] = Reduction of methanethiol (MeSH) in headspace, phosphate buffer pH 7, GC; details: for reactivity towards MeSH / ability to bind MeSH (in words): aqueous environment; for % reduction of MeSH in the headspace: MeSH 100 μM, phosphate buffer pH 7, 1 h
Protocol: (§1) The compounds listed in Table 1 are dissolved to a final concentration of 100 μM, 200 μM and 500 μM in 1 ml of phosphate buffer at pH 7 in a closed GC-headspace vial. MeSH is added to a final concentration of 100 μM and the mixture is equilibrated for 1 h. Samples are heated to 75° C. and 1 ml of the headspace above the reaction mixture is injected onto a column suitable for separation of sulphur compounds (SPW1-sulfur, Supelco). The temperature program is set to 1 min initial temperature at 50° C., heating at a rate of 10° C./min to 100° C. and further heating at 20° C./min to 200° C. The headspace level of MeSH is compared to a blank sample, i.e. a sample without the active compound.

[2] = Reduction of methanethiol (MeSH) in saliva, headspace GC; details: compound 500 μM, MeSH 200 μM
Protocol: as §1
The compounds given in Table 3 are dissolved in GC-headspace vials in saliva donations pooled form four donors at a concentration of 500 μM. After a conditioning period of 1 and 2.5 h respectively, MeSH is added at a concentration of 200 μM, and 1 hour later MeSH level in the headspace is determined as described in Example 8.

[3] = Reduction of allyl mercaptan, monobromobimane fluorescence; details: 200 μM allyl mercaptan-solution, pH 7, 15 min
Protocol: The compounds given in Table 2 are dissolved in DMSO to a final concentration of 100 mM and serially diluted in the same solvent. Aliquots of the solutions of different active compounds (2.5 μl) are distributed to individual wells of a microtiter plate. 100 μl of a 200 μM allyl mercaptan-solution (in 50 mM phosphate buffer, pH 7) are added to each well and the plates are immediately sealed. After 15 min of incubation, the unreacted allyl mercaptan is derivatised by adding to each well of the microtiter plate 100 μl of a monobromobimane (obtained from Fluka, Buchs, Switzerland) stock solution (0.5 mM in 1 M NaCO3, pH 8.8). After 10 min the fluorescence in the wells of the microtiter plates is measured on a Flex-station (Molecular devices, Sunnyvale, Calif., USA) with an excitation wavelength of 385 nm and an emission wavelength of 480 nm. After the fluorescence determination, from all the wells the blank value containing only buffer and DMSO is subtracted. The fluorescence of control wells with allyl mercaptan and DMSO only is then compared to the fluorescence in wells containing potential allyl mercaptan trapping agents (compound 1 to 5) to calculate the inhibition in percent.

[4] = 500 μM, pH 7
Protocol: Samples of 0.50 ml are withdrawn at the indicated time intervals and extracted with MTBE (0.50 ml). The amount of released ethyl vanillin is determined by quantitative GC-analysis.

[5] = after 2½ h conditioning in pooled saliva
[6] = after 1 h conditioning in pooled saliva

SMILES | reactivity towards MeSH / ability to bind MeSH (in words) [1] | % reduction of MeSH in the headspace ([1]; compound 100 μM) | % reduction of MeSH in the headspace ([1]; compound 200 μM) | % reduction of MeSH in the headspace ([1]; compound 500 μM) | Reduction of MeSH (%) [2, 5] | Reduction of MeSH (%) [2, 6] | % reduction of allyl mercaptan ([3]; test concentration 31.25 μM) | % reduction of allyl mercaptan ([3]; test concentration 62.5 μM) | % reduction of allyl mercaptan ([3]; test concentration 125 μM) | % reduction of allyl mercaptan ([3]; test concentration 250 μM) | % reduction of allyl mercaptan ([3]; test concentration 500 μM) | % reduction of allyl mercaptan ([3]; test concentration 1000 μM) | % of theory (released ethyl vanillin) ([4]; 30 min) | conc. of released ethy vanillin ([4]; 30 min) | % of theory (released ethyl vanillin) ([4]; 60 min) | conc. of released ethy vanillin ([4]; 60 min) | % of theory (released ethyl vanillin) ([4]; 120 min) | conc. of released ethy vanillin ([4]; 120 min)
CC1CCC(C(C)C)C(OC(=O)/C=C/C(=O)O)C1 (stereo not shown) [B, reference compound] | low reactivity | 11.9% | 1.7% | 0% | – | – | – | – | – | – | – | – | – | – | – | – | – | –
CC1CCC(C(C)C)C(OC(=O)/C=C/C(=O)OCC(O)CO)C1 (stereo not shown) [Compound 1, 2,3-Dihydroxypropyl 2-isopropyl-5-methylcyclohexyl fumarate] | – | 81.5% | 73.7% | >90% | 40.5% | 72.7% | 0.1% | 9.9% | 22.5% | 43.2% | 68.8% | 86.0% | – | – | – | – | – | –
CCOC(=O)/C=C/C(=O)Oc1c(C)occc1=O [Compound 2, Ethyl 2-methyl-4-oxo-4H-pyran-3-yl fumarate] | – | >92% | >92% | >90% | 32.5% | 75.9% | 11.1% | 31.9% | 65.3% | 98.4% | 100.0% | 100.0% | – | – | – | – | – | –
CCOC(=O)/C=C/C(=O)Oc1ccc(C=O)cc1OCC [Compound 3, 2-Ethoxy-4-formylphenyl ethyl fumarate] | – | >90% | >92% | >90% | 73.3% | 36.2% | 12.8% | 32.7% | 74.5% | 99.8% | 100.0% | 100.0% | 38% | 192 µM | 47% | 235 µM | 62% | 310 µM
CCOC(=O)/C=C/C(=O)Oc1ccccc1C(=O)OC [Compound 4, Methyl 2-((E)-3-(ethoxycarbonyl)acryloyloxy)benzoate] | – | >90% | >92% | >90% | 74.3% | 28.1% | 14.4% | 32.3% | 67.6% | 95.3% | 99.8% | 100.0% | – | – | – | – | – | –
CC1CCC(C(C)C)C(OC(=O)/C=C/C(=O)OCC(O)C(O)C(O)C(O)CO)C1 (stereo not shown) [Compound 5, 2,3,4,5,6-Pentahydroxyhexyl 2-isopropyl-5-methylcyclohexyl fumarate] | – | 71.6% | – | >90% | 75.1% | 48.2% | 1.0% | 8.1% | 19.3% | 38.4% | 64.4% | 89.3% | – | – | – | – | – | –
CCOC(=O)/C=C/C(=O)OCC=Cc1ccccc1 [Compound 6, Cinnamyl Ethyl Fumarate] | – | 45.8% | – | 85% | – | – | – | – | – | – | – | – | – | – | – | – | – | –
CC/C=C\CCOC(=O)/C=C/C(=O)OCC [Compound 7, Ethyl (Z)-hex-3-enyl fumarate] | – | 33% | 39.2% | 54.1% | – | – | – | – | – | – | – | – | – | – | – | – | – | –
CCCCCCOC(=O)/C=C/C(=O)OCCCCCC [Dihexyl fumarate (A), Dihexyl fumarate, reference compound] | very low reactivity | 4.3% | 1.9% | 10.9% | – | – | – | – | – | – | – | – | – | – | – | – | – | –
